“And” between values parts separate entries of the source, which are not always exact repeats. Equal values may be shown once. Numbers after ± are expanded uncertainties.
How the values were obtained:
[1] = molar enthalpy of vaporization or sublimation; details: 298.15 K; Crystal; Static calorimetry
[2] = Crystal, Calculated from knudsen effusion weight loss

Row | Compound | molar enthalpy [1] | vapor or sublimation pressure ([2]; 301.2 K) | vapor or sublimation pressure ([2]; 303.19 K) | vapor or sublimation pressure ([2]; 305.1 K) | vapor or sublimation pressure ([2]; 307.19 K) | vapor or sublimation pressure ([2]; 309.18 K) | vapor or sublimation pressure ([2]; 311.1 K) | vapor or sublimation pressure ([2]; 313.19 K) | vapor or sublimation pressure ([2]; 315.19 K) | vapor or sublimation pressure ([2]; 317.1 K) | vapor or sublimation pressure ([2]; 319.18 K) | vapor or sublimation pressure ([2]; 321.15 K) | vapor or sublimation pressure ([2]; 323.09 K)
1 | O=C(CCl)c1ccccc1 [2-chloroacetophenone] | 21 ± 0.406 kcal/mol |  |  |  |  |  |  |  |  |  |  |  | 
2 | O=C(CCl)c1ccc(Cl)cc1 [2,4'-dichloroacetophenone] |  | 8.5e-05 ± 4e-06 kPa and 7.6e-05 ± 4e-06 kPa and 7.9e-05 ± 4e-06 kPa | 9.9e-05 ± 5e-06 kPa and 0.000105 ± 5e-06 kPa and 0.000103 ± 5e-06 kPa | 0.000133 ± 7e-06 kPa and 0.000131 ± 7e-06 kPa and 0.000134 ± 7e-06 kPa | 0.000165 ± 8e-06 kPa and 0.000178 ± 9e-06 kPa | 0.000218 ± 1.1e-05 kPa and 0.000214 ± 1.1e-05 kPa and 0.000221 ± 1.1e-05 kPa | 0.00027 ± 1.4e-05 kPa and 0.000271 ± 1.4e-05 kPa and 0.000278 ± 1.4e-05 kPa | 0.000344 ± 1.7e-05 kPa and 0.000341 ± 1.7e-05 kPa and 0.000359 ± 1.8e-05 kPa | 0.000447 ± 2.2e-05 kPa and 0.000437 ± 2.2e-05 kPa and 0.000448 ± 2.2e-05 kPa | 0.000561 ± 2.8e-05 kPa and 0.000553 ± 2.8e-05 kPa and 0.000562 ± 2.8e-05 kPa | 0.000699 ± 3.5e-05 kPa and 0.000686 ± 3.4e-05 kPa and 0.000757 ± 3.8e-05 kPa | 0.000903 ± 4.5e-05 kPa and 0.000911 ± 4.6e-05 kPa and 0.000875 ± 4.4e-05 kPa | 0.001131 ± 0.00012 kPa and 0.001115 ± 0.00011 kPa and 0.001107 ± 0.00011 kPa

Source: the NIST ThermoML archive (doi:10.1016/j.jct.2013.07.026)
